Source: ChEMBL document CHEMBL4387721, “Proteolysis targeting chimeras (PROTACs) in 'beyond rule-of-five' chemical space: Recent progress and future challenges” (Bioorg Med Chem Lett, 2019)
Each block holds one compound with its values, some of them ahead of it.

Legend:
Type in all cases: cell-based
[1] = biological target: T1, BRD4/E3 ubiquitin-protein ligase Mdm2 (Homo sapiens, UniProt Q00987+O60885); experiment: Protac activity at BRD4/MDM2 in human HCT116 cells assessed as induction of BRD4 degradation at 100 nM after 24 hrs by immunoblotting analysis relative to control
T1 sequence (Q00987 whole entry, looked up, other chains not shown): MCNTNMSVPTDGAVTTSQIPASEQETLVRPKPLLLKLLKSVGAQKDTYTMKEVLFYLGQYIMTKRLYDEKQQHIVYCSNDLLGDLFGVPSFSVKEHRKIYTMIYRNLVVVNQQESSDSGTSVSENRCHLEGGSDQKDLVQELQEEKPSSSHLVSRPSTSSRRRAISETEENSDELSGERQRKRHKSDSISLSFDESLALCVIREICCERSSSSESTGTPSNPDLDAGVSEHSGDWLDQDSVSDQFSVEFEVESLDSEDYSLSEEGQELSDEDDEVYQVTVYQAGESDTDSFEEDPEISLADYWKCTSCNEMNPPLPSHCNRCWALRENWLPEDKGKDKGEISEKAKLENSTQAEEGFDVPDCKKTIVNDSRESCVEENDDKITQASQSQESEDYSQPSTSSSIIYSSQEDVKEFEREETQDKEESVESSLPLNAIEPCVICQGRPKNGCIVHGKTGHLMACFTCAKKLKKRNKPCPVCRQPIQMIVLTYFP

[2] = biological target: T1, BRD4/E3 ubiquitin-protein ligase Mdm2; experiment: Protac activity at BRD4/MDM2 in human HCT116 cells assessed as induction of BRD4 degradation at after 24 hrs by immunoblotting analysis
[3] = biological target: T2, Protein cereblon/Tyrosine-protein kinase BTK (Homo sapiens, UniProt Q06187+Q96SW2); experiment: Protac activity at CRBN/BTK in human Ramos cells assessed as induction of BTK protein degradation at 300 nM incubated for 24 hrs by Western blot analysis relative to control
Target sequence in this assay (Q06187 2-659 limits assumed): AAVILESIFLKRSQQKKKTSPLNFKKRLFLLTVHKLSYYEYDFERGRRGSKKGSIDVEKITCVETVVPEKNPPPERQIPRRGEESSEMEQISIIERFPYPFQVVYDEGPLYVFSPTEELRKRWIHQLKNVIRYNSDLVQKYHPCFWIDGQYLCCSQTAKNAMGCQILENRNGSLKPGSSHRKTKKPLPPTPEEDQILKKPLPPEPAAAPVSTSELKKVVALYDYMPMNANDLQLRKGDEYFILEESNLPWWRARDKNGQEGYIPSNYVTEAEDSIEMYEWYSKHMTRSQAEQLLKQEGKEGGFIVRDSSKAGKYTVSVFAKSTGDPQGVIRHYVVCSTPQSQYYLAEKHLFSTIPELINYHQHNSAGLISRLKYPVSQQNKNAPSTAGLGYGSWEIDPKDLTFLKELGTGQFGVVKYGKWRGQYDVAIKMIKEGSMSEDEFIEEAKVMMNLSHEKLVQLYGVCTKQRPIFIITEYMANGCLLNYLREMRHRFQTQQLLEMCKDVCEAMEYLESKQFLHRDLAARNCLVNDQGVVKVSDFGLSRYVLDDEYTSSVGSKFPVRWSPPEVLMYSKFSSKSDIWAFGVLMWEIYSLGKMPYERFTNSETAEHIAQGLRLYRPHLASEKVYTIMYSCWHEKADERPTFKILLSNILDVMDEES
Target sequence in this assay (Q96SW2 whole entry partner): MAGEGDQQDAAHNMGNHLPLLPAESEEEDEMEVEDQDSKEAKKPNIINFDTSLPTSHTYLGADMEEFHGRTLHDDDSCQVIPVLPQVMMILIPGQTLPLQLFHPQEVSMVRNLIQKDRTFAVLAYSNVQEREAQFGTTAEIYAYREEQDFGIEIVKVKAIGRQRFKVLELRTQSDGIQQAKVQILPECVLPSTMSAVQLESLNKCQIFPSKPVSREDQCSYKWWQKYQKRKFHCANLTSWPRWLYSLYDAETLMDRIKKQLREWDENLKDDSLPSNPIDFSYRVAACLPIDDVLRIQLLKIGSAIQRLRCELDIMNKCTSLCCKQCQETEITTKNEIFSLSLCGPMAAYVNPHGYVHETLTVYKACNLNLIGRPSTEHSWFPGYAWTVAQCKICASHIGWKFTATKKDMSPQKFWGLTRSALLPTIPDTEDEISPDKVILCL

[4] = biological target: T2, Protein cereblon/Tyrosine-protein kinase BTK; experiment: Protac activity at CRBN/BTK in human Ramos cells assessed as induction of BTK protein degradation incubated for 24 hrs by Western blot analysis
Target sequence in this assay (Q06187 whole entry): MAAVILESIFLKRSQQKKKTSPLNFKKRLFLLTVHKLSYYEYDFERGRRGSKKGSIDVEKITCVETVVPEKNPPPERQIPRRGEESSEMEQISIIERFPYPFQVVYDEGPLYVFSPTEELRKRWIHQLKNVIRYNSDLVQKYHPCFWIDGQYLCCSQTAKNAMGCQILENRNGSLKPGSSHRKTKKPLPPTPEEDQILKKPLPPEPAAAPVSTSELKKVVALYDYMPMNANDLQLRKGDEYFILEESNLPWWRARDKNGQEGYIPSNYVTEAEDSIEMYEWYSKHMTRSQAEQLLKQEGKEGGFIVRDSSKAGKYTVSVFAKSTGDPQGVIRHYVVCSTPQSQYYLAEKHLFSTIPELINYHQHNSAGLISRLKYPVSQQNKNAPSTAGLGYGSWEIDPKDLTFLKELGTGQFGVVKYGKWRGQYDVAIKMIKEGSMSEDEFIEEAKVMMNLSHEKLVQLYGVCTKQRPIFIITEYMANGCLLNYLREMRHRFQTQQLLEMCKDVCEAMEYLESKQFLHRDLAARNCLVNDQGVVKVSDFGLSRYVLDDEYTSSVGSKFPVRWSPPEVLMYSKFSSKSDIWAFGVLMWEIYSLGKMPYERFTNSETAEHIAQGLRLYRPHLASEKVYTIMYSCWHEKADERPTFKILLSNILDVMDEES
Target sequence in this assay (Q96SW2 whole entry): as the sequence (Q96SW2 whole entry partner) above

[5] = biological target: T3, Estrogen receptor/E3 ubiquitin-protein ligase XIAP (Homo sapiens, UniProt P03372+P98170); experiment: Protac activity at ERalpha/XIAP in human MCF7 cells assessed as induction of ERalpha degradation at 100 nM by Western blot analysis relative to control
Target sequence in this assay (P03372 whole entry, looked up): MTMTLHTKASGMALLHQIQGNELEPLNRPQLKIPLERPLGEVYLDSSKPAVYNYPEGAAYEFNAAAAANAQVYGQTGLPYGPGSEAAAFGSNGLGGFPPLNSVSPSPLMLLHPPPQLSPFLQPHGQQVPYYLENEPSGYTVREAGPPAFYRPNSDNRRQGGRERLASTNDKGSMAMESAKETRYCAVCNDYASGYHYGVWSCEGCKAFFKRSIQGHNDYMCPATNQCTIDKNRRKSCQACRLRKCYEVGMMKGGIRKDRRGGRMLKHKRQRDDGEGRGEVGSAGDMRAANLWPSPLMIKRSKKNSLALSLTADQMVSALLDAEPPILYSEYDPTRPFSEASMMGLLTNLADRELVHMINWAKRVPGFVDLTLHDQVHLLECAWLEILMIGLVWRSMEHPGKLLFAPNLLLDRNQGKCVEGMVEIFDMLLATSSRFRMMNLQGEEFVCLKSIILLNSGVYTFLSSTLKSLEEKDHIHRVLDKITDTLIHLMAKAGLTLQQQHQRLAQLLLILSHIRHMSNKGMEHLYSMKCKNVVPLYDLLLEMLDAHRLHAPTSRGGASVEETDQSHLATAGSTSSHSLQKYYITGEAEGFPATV
Target sequence in this assay (P98170 whole entry, looked up): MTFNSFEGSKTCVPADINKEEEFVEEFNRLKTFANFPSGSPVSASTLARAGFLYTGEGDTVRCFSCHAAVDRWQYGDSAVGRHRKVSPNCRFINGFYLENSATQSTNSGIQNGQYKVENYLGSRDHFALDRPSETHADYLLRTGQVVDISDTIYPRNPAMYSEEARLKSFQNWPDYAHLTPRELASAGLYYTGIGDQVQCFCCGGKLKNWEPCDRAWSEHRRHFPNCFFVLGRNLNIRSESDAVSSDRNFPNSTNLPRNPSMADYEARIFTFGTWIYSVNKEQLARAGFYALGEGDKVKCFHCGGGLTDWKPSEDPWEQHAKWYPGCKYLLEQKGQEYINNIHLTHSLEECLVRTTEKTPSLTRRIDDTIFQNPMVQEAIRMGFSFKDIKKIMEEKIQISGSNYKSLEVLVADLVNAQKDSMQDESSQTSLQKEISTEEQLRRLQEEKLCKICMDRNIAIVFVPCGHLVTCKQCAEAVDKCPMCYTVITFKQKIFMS

[6] = biological target: T3, Estrogen receptor/E3 ubiquitin-protein ligase XIAP; experiment: Protac activity at ERalpha/XIAP in human MCF7 cells assessed as induction of ERalpha degradation after 4 hrs by Western blot analysis
Target sequence in this assay (P03372 whole entry): as the sequence (P03372 whole entry, looked up) above
Target sequence in this assay (P98170 whole entry): as the sequence (P98170 whole entry, looked up) above

[7] = biological target: T4, Protein cereblon/Tyrosine-protein kinase BTK (Homo sapiens, UniProt Q06187+Q96SW2, C481S); experiment: Protac activity at CRBN/BTK C481S mutant in human MCL cells assessed as induction of BTK C481S mutant degradation
T4 sequence (Q06187 2-659 C481S limits assumed, stated change not applied): as the sequence (Q06187 2-659 limits assumed) above, with C480S counted along it
T4 sequence (Q96SW2 whole entry, stated change not applied): as the sequence (Q96SW2 whole entry partner) above

[8] = test system: Protein cereblon/Tyrosine-protein kinase BTK (Homo sapiens), Q06187+Q96SW2 [C481S]; experiment: Protac activity at CRBN/BTK C481S mutant in human MCL cells assessed as induction of BTK C481S mutant degradation at 500 nM relative to control
[9] = biological target: T4, Protein cereblon/Tyrosine-protein kinase BTK; experiment: Protac activity at CRBN/BTK C481S mutant in human MM cells assessed as induction of BTK C481S mutant protein degradation
[10] = test system: Protein cereblon/Tyrosine-protein kinase BTK (Homo sapiens), Q06187+Q96SW2 [C481S]; experiment: Protac activity at CRBN/BTK C481S mutant in human MM cells assessed as induction of BTK C481S mutant protein degradation at 500 nM relative to control
[11] = biological target: T5, von Hippel-Lindau disease tumor suppressor/Receptor-type tyrosine-protein kinase FLT3 (Homo sapiens, UniProt P36888+P40337); experiment: Protac activity at VHL/FLT3 in human MOLM14 cells assessed as induction of FLT3 protein degradation measured after 4 hrs by immunoblot analysis
[12] = biological target: T5, von Hippel-Lindau disease tumor suppressor/Receptor-type tyrosine-protein kinase FLT3; experiment: Protac activity at VHL/FLT3 in human MOLM14 cells assessed as induction of FLT3 protein degradation at 50 nM measured after 4 hrs by immunoblot analysis relative to control
[13] = biological target: Protein cereblon/Cyclin-dependent kinase 9 (Homo sapiens, UniProt P50750+Q96SW2); experiment: Protac activity at CRBN/CDK9 in human HCT116 cells assessed as induction of CDK9 protein degradation at 20 uM after 6 hrs by Western blot analysis relative to control
[14] = biological target: Protein cereblon/Histone acetyltransferase KAT2B (Homo sapiens) (UniProt Q92831+Q96SW2); experiment: Protac activity at CRBN/PCAF in human THP1 cells assessed as induction of PCAF protein degradation incubated for 18 hrs by Western blot analysis relative to control
[15] = biological target: Protein cereblon/Histone acetyltransferase KAT2A (Homo sapiens) (UniProt Q92830+Q96SW2); experiment: Protac activity at CRBN/GCN5 in human THP1 cells assessed as induction of GCN5 protein degradation at 1 nM incubated for 18 hrs by Western blot analysis relative to control
[16] = biological target: T6, von Hippel-Lindau disease tumor suppressor/Bromodomain-containing protein 4 (Homo sapiens, UniProt O60885+P40337); experiment: Protac activity at VHL/BRD4 in human 22Rv1 cells assessed as induction of BRD4 protein degradation incubated for 16 hrs by Western blot analysis relative to control
T6 sequence (P40337 whole entry, looked up, other chains not shown): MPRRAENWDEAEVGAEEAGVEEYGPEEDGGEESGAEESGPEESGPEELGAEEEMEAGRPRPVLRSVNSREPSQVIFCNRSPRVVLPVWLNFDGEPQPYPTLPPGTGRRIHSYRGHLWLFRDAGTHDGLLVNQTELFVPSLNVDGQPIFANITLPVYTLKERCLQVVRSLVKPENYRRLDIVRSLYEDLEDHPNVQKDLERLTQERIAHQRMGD

[17] = biological target: von Hippel-Lindau disease tumor suppressor/Bromodomain-containing protein 2 (Homo sapiens, UniProt P25440+P40337); experiment: Protac activity at VHL/BRD2 in human 22Rv1 cells assessed as induction of BRD2 protein degradation incubated for 16 hrs by Western blot analysis
von Hippel-Lindau disease tumor suppressor/Bromodomain-containing protein 2, sequence (P25440 whole entry): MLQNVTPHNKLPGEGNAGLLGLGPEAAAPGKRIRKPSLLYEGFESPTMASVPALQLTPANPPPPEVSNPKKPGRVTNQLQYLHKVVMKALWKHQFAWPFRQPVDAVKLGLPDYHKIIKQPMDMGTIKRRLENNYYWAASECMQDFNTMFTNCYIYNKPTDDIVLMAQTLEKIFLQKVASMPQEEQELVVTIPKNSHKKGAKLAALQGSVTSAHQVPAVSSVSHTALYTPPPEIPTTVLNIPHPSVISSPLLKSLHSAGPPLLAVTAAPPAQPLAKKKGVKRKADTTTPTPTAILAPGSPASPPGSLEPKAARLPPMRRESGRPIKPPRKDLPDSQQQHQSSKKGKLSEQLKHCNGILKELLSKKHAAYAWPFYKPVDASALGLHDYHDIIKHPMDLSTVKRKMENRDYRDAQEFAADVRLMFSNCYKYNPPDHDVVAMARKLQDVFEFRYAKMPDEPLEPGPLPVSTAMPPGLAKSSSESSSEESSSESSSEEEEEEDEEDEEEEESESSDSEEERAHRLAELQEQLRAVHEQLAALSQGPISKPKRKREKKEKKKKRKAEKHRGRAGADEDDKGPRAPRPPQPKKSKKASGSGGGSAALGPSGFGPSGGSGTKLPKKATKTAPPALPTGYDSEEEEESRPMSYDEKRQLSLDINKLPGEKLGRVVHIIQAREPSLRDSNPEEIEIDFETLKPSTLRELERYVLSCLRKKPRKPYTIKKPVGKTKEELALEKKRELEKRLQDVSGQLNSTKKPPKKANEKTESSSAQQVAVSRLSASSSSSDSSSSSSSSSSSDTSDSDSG
von Hippel-Lindau disease tumor suppressor/Bromodomain-containing protein 2, sequence (P40337 whole entry): as the sequence (P40337 whole entry, looked up, other chains not shown) above

[18] = biological target: T6, von Hippel-Lindau disease tumor suppressor/Bromodomain-containing protein 4; experiment: Protac activity at VHL/BRD4 in human HeLa cells assessed as induction of BRD4 protein degradation at 50 nM up to 36 hrs by Western blot analysis relative to control
[19] = biological target: T6, von Hippel-Lindau disease tumor suppressor/Bromodomain-containing protein 4; experiment: Protac activity at VHL/BRD4 short isoform in human HeLa cells assessed as induction of BRD4 short isoform degradation incubated for 24 hrs by Western blot analysis
[20] = biological target: T6, von Hippel-Lindau disease tumor suppressor/Bromodomain-containing protein 4; experiment: Protac activity at VHL/BRD4 short isoform in human HeLa cells assessed as induction of BRD4 short isoform degradation incubated for 24 hrs by Western blot analysis relative to control

Emax [1]: 98% | DC50 [2]: 32 nM
SMILES: COc1cc(C(=O)NCCOCCOCCOCCNC(=O)C[C@@H]2N=C(c3ccc(Cl)cc3)c3c(sc(C)c3C)-n3c(C)nnc32)ccc1NC(=O)[C@@H]1N[C@@H](CC(C)(C)C)[C@](C#N)(c2ccc(Cl)cc2F)[C@H]1c1cccc(Cl)c1F

Emax [3]: 87% | DC50 [4]: 1.1 nM
SMILES: NC(=O)c1c(-c2ccc(Oc3ccc(F)cc3F)cc2)nn([C@@H]2CCCN(C(=O)OCCOCCOCCOCCOCCOCCNc3cccc4c3C(=O)N(C3CCC(=O)NC3=O)C4=O)C2)c1N (stereo not given in full)

Emax [5]: 80% | DC50 [6]: < 3 nM
SMILES: CC/C(=C(\c1ccc(O)cc1)c1ccc(OCCN(C)C(=O)COCCOCCOCCOc2cccc(O[C@H]3C[C@@H](C(=O)N[C@@H]4CCCc5ccccc54)N(C(=O)[C@@H](NC(=O)[C@H](C)NC)C4CCCCC4)C3)c2)cc1)c1ccccc1

SMILES: Nc1ncnc2c1c(-c1ccc(Oc3ccccc3)cc1)nn2[C@@H]1CCCN(C(=O)c2cn(CCOCCOCCOCCNc3cccc4c3C(=O)N(C3CCC(=O)NC3=O)C4=O)nn2)C1 (stereo not given in full)
DC50 [7]: > 6 nM | Emax [8]: > 94% | DC50 [9]: < 12 nM | Emax [10]: > 94%

DC50 [11]: < 5 nM | Emax [12]: > 90%
SMILES: Cc1ncsc1-c1ccc(CNC(=O)[C@@H]2C[C@@H](O)CN2C(=O)[C@@H](NC(=O)CCOCCOCCOc2ccc3c(c2)sc2nc(-c4ccc(NC(=O)Nc5cc(C(C)(C)C)on5)cc4)cn23)C(C)(C)C)cc1

Emax [13]: > 65%
SMILES: O=C1CCC(N2C(=O)c3cccc(OCCCCCOc4ccc(CC(=O)Nc5cc(C6CCC6)[nH]n5)cc4)c3C2=O)C(=O)N1 (stereo not given)

Emax [14]: 97% | Emax [15]: 81%
SMILES: CN1C[C@H](Nc2cnn(C)c(=O)c2Br)C[C@H](c2ccc(C(=O)N(C)CCCN(C)c3ccc(CCCOc4cccc5c4C(=O)N(C4CCC(=O)NC4=O)C5=O)cc3)cc2)C1 (stereo not given in full)

Emax [16]: > 99% | DC50 [17]: < 5 nM
SMILES: Cc1ncsc1-c1ccc([C@H](C)NC(=O)[C@@H]2C[C@@H](O)CN2C(=O)[C@@H](NC(=O)COCCCOCCNC(=O)C[C@@H]2N=C(c3ccc(Cl)cc3)c3c(sc(C)c3C)-n3c(C)nnc32)C(C)(C)C)cc1

Emax [18]: > 96%
SMILES: Cc1ncsc1-c1ccc(CNC(=O)[C@@H]2C[C@@H](O)CN2C(=O)[C@@H](NC(=O)COCCOCCOCCNC(=O)C[C@@H]2N=C(c3ccc(Cl)cc3)c3c(sc(C)c3C)-n3c(C)nnc32)C(C)(C)C)cc1

DC50 [19]: 10 to 100 nM | Emax [20]: > 90%
SMILES: CC(=O)N[C@H](C(=O)N1C[C@H](O)C[C@H]1C(=O)NCc1ccc(-c2scnc2C)cc1)C(C)(C)SCCCCCCNC(=O)C[C@@H]1N=C(c2ccc(Cl)cc2)c2c(sc(C)c2C)-n2c(C)nnc21
